Counter-ions that a name gives are not always drawn.

One data set concerns the target T1, CCR1 (Homo sapiens, UniProt P32246).
T1 construct: endogenous in cells; host or cells: THP-1 (human monocytic cell line)
T1 sequence (P32246 1-355): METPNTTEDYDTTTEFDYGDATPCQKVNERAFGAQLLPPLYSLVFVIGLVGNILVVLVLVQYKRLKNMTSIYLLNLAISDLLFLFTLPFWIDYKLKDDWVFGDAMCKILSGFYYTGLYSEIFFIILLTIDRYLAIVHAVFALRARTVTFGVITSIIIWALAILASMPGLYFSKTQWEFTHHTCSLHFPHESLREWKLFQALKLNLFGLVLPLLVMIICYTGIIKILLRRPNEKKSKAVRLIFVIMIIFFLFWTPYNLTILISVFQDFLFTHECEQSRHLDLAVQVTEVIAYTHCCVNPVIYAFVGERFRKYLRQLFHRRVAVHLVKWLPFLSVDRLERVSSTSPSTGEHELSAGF
Briefly: Inhibition of RANTES-induced intracellular calcium increase in THP-1 cells (Fura-2). Format: cell-based. Particulars: human monocytic cell line THP-1, stimulated with RANTES (40 ng/ml), intracellular calcium level. Here is the method: (§1) The CCR receptor-inhibiting activities of the compounds represented by Formula I will now be described. Using human eosinophil or human monocytic cell line (THP-1), the CCR receptor-inhibiting activities were studied.
(§2) Human peripheral blood eosinophils or THP- l cells were suspended in RPMI-1640 culture medium containing 1% fetal calf serum (FCS) and cultured at 37° C. for 30 minutes in the presence of 5 μM of Fura-2/AM (DOJINDO LABORATORIES). The cells were washed twice with assay buffer (140 mM NaCl, 10 mM KCl, 1.8mM CaCl2, 1 mM MgCl2, 1 mM Na2HPO4, 25mM HEPES, 5 mM glucose, 1% BSA; pH7.4) at 4° C. to remove Fura-2/AM which was not taken into the cells. The cells were suspended in the assay buffer to a final cell density of 1×10^6 cells/ml and the cell suspension was stored in the dark until assay. The calcium levels in the cells were measured by using CAF100 commercially available from Nippon Koden Co. That is, 490 μl of the suspension of the cells loaded with Fura-2 was placed in a cuvette and the cuvette was set in CAF100. After the fluorescence intensities at 340 nm and 380 nm of excitation, as well as the ratio thereof, were stabilized, 10 μl of 250 μM solution of each test compound was injected. The change in the calcium level in the cells within one minute from the stimulation was measured in terms of the ratio (F340/F380) of the intensity of the excitation light at 340 nm to that of the light at 380 nm, and the intracellular calcium level induced by the stimulation was defined as the peak of the ratio. One minute after exposure of the cells to each test compound, the cells were stimulated with eotaxin (5 ng/ml), RANTES (40 ng/ml) or MCP-1 (10 ng/ml). It is thought that the responses by THP-1 cells to RANTES and MCP-1 are mediated through CCR1 and CCR2, respectively; The response of eosinophils to eotaxin is thought to be mediated through CCR3. The increase of the intracellular calcium level was compared to that of the corresponding case wherein the cells were not treated with the test compound.

For the next data set, the target named is T2, CCR2 (Homo sapiens, UniProt P41597).
T2 construct: endogenous in cells; host or cells: THP-1 (human monocytic cell line)
T2 sequence (P41597 1-360 isoform P41597-2): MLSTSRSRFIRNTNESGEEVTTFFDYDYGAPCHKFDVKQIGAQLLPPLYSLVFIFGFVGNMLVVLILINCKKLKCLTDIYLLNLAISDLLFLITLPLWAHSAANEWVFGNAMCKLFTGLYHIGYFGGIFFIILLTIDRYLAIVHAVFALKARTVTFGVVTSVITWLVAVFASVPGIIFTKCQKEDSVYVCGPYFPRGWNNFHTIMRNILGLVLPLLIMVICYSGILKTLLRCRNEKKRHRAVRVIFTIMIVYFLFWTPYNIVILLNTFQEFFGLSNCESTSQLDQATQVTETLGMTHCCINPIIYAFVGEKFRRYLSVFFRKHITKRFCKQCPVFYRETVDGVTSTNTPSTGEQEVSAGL
Briefly: Inhibition of MCP-1-induced intracellular calcium increase in THP-1 cells (Fura-2). It is filed as cell-based. Particulars: human monocytic cell line THP-1, stimulated with MCP-1 (10 ng/ml), intracellular calcium level. Here is the method:
as §1, §2
A general note: A change in cytosolic calcium serves as a functional read-out for many receptors and channels.

Another data set has as its target T3, CCR3 (Homo sapiens, UniProt P51677).
T3 construct: endogenous in cells; host or cells: human peripheral blood eosinophils (primary cells)
T3 sequence (P51677 1-355): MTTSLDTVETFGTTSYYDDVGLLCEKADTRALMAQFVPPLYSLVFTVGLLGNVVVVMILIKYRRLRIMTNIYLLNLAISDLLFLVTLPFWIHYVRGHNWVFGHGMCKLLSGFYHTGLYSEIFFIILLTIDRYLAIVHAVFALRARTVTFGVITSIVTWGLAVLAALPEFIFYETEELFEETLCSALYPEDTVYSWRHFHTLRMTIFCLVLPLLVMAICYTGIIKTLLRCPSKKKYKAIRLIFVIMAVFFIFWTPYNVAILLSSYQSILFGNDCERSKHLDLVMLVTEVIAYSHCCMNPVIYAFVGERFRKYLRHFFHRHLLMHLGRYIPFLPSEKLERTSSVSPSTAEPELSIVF
Kind of data set: Inhibition of eotaxin-induced intracellular calcium increase in human eosinophils (Fura-2). Format: cell-based. Particulars: human peripheral blood eosinophils, stimulated with eotaxin (5 ng/ml), intracellular calcium level. Here is the method:
as §1, §2

For orientation: melting point means the temperature of the solid-liquid transition. `Cc1nnc2n(CCCN3CCC(C(c4ccccc4)c4ccccc4)CC3)c(=O)c3ccccc3n12` (as salt: hydrochloride) [Compound 14] had a melting point of 172.8 to 190.5 °C.

For the compound `Cc1nnc2n(CCCN3CCN(Cc4cccc(Oc5ccccc5)c4)CC3)c(=O)c3ccccc3n12` (as salt: hydrochloride) [Compound 17, 2,4,5,7-Tetraaza-3-methyl-7-(3-(4-((3-phenoxyphenyl)methyl)piperazinyl)propyl)tricyclo[7.4.0.0<2,6>]trideca-1(13),3,5,9(10),11-pentaene-8-one], the melting point was in the range of 225 to 230.5 °C.

Compound `Cc1nnc2n(CCCN3CCN(Cc4ccc(Oc5ccccc5)cc4)CC3)c(=O)c3ccccc3n12` (as salt: hydrochloride) [Compound 20, 2,4,5,7-Tetraaza-3-methyl-7-(3-(4-((4-phenoxyphenyl)methyl)piperazinyl)propyl)tricyclo[7.4.0.0<2,6>]trideca-1(13),3,5,9(10),11-pentaene-8-one] returned a melting point of 229 to 237 °C.

In turn, `Cc1nnc2n(CCCCN3CCC(C(c4ccccc4)c4ccccc4)CC3)c(=O)c3ccccc3n12` (as salt: hydrochloride) [Compound 56] had a melting point of 166.5 to 180 °C.

As a reminder, the IC50 is the point on the concentration scale where inhibition reaches its midpoint. `Cc1nnc2n(CCCN3CCCC(c4c[nH]c5ccccc45)C3)c(=O)c3ccccc3n12` (stereo not drawn) [Compound 5, 2,4,5,7-Tetraaza-7-(3-(3-indole-3-ylpiperidyl)propyl)-3-methyltricyclo[7.4.0.0<2,6>]trideca-1(13),3,5,9(10),11-pentaene-8-one]: the melting point is 207 to 212 °C (dec.). In addition, the IC50 on CCR1 came out at 12.9 µM. For the same compound, the IC50 at CCR2 was determined as 48.1 µM.

On to `Cc1nnc2n(CCCN3CCC(c4c[nH]c5ccccc45)CC3)c(=O)c3ccccc3n12` [Compound 6, 2,4,5,7-Tetraaza-7-(3-(4-indole-3-ylpiperidyl)propyl)-3-methyltricyclo[7.4.0.0<2,6>]trideca-1(13),3,5,9(10),11-pentaene-8-one], for which the melting point is 207 to 209 °C (dec.).

In turn, `Cc1nnc2n(CCCN3CCC(=C(c4ccccc4)c4ccccc4)CC3)c(=O)c3ccccc3n12` [Compound 7] showed a melting point of 157 to 159 °C.

For the compound `Cc1nnc2n(CCCN3CCN(Cc4ccccc4-c4ccccc4)CC3)c(=O)c3ccccc3n12` [Compound 11, 2,4,5,7-Tetraaza-3-methyl-7-(3-(4-((2-phenylphenyl)methyl)piperazinyl)propyl)tricyclo[7.4.0.0<2,6>]trideca-1(13),3,5,9(10),11-pentaene-8-one], the IC50 on CCR1 was 9.1 µM; at CCR3, 3.6 µM; at CCR2, > 160 µM.

In turn, `Cc1nnc2n(CCCN3CCN(C4CCCCC4)CC3)c(=O)c3ccccc3n12` [Compound 12] yielded a melting point of 118 to 120 °C.

For `Cc1nnc2n(CCCN3CCN(C(c4ccccc4)c4ccccc4)CC3)c(=O)c3ccccc3n12` [Compound 26], the melting point was in the range of 168 to 173 °C. Moreover, the IC50 at CCR1 amounted to 4.1 µM. Moreover, the IC50 on CCR3 was 0.3 µM. Also, the IC50 on CCR2 is > 160 µM.

Compound `CCc1nnc2n(CCCN3CCN(C(c4ccccc4)c4ccccc4)CC3)c(=O)c3ccccc3n12` [Compound 27] had a melting point of 199 to 201 °C.

In turn, `CCCc1nnc2n(CCCN3CCN(C(c4ccccc4)c4ccccc4)CC3)c(=O)c3ccccc3n12` [Compound 28] gave a melting point of 150 to 152 °C. The IC50 on CCR1 was 9.3 µM. For the same compound, at CCR3, the IC50 was 1.4 µM. The IC50 at CCR2 was > 160 µM.

As for `COc1ccc2c(c1)c(=O)n(CCCN1CCN(C(c3ccccc3)c3ccccc3)CC1)c1nnc(C)n21` [Compound 33], the melting point lay in the range of 194 to 196 °C.

For `COc1cc2c(=O)n(CCCN3CCN(C(c4ccccc4)c4ccccc4)CC3)c3nnc(C)n3c2cc1OC` [Compound 35], the melting point lay within 184 to 186 °C.

Turning to `Cc1nnc2n(CCCN3CCN(C(c4ccccc4)c4ccccc4)CC3)c(=O)c3cc(Cl)ccc3n12` [Compound 38], the melting point is 116 to 118 °C. In addition, the IC50 on CCR1 amounted to 16 µM. The IC50 on CCR3 was 0.5 µM. Besides, the IC50 on CCR2 is > 160 µM.

Turning to `Cc1nnc2n(CCCN3CCN(C(c4ccccc4)c4ccccc4)CC3)c(=O)c3cc(O)ccc3n12` [Compound 40], the melting point was in the range of 225 to 228 °C.

`Cc1nnc2n(CCCN3CCN(C(c4ccccc4)c4ccccc4)CC3)c(=O)c3ccc(C(F)(F)F)cc3n12` [Compound 45] displayed a melting point of 154 to 159.5 °C.

On to `Cc1nnc2n(CCCN3CCN(C(c4ccccc4)c4ccccc4)CC3)c(=O)c3cc(N(C)C)ccc3n12` [Compound 47], for which the melting point lay in the range of 189 to 191 °C.

Consider `Cc1nnc2n(CCN3CCN(C(c4ccccc4)c4ccccc4)CC3)c(=O)c3ccccc3n12` [Compound 50], for which the melting point fell in the range of 217 to 219 °C.

Take `Cc1nnc2n(CCCCN3CCN(C(c4ccccc4)c4ccccc4)CC3)c(=O)c3ccccc3n12` [Compound 55]: the melting point was in the range of 157 to 159 °C.

Turning to `Cc1nnc2c(CCCN3CCC(C(c4ccccc4)c4ccccc4)CC3)nc3ccccc3n12` [Compound 74], the melting point lay in the range of 88 to 90 °C.

`Cc1nnc2n(-c3cccc(N4CCC(C(c5ccccc5)c5ccccc5)CC4)c3)c(=O)c3ccccc3n12` [Compound 85]: the melting point was in the range of 277 to 279 °C.

As to `Cc1nnc2n(CCCN3CCN(Cc4ccc(Cl)c(Cl)c4)CC3)c(=O)c3ccccc3n12` [Compound 93, 2,4,5,7-Tetraaza-7-(3-(4-(3,4-dichlorobenzyl)piperazine-1-yl)propyl)-3-methyltricyclo[7.4.0.0<2,6>]trideca-1(13),3,5,9(10),11-pentaene-8-one], the melting point is 77 to 79 °C.

Values taken from patent US6492364B1, “Triazolo and derivatives as chemokine inhibitors” (Toray Industries, Inc., priority 1998, dated 2002).
